These results are taken from ChEMBL document CHEMBL1132518, “Symmetrical anhydride-type serine protease inhibitors: structure-activity relationship studies of human chymase inhibitors” (Bioorg Med Chem Lett, 1999).

Some results are limits rather than exact numbers.

The first assay addresses T1, Cathepsin G (Homo sapiens, UniProt P08311).
T1 sequence (P08311 whole entry): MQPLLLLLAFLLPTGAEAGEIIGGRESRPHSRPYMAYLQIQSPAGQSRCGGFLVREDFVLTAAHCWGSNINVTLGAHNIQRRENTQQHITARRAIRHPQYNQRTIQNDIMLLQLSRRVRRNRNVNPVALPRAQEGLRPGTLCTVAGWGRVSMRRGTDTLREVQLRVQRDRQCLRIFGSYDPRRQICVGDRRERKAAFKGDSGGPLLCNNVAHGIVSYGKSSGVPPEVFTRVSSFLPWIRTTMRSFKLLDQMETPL
The assay is described as follows: Inhibitory activity against human leukocyte cathepsin G (h-CG).
As usually defined, the IC50 is the point on the concentration scale where inhibition reaches its midpoint. High values mean a need for much substance, low ones inhibition by little substance. For the compound `CCCCCC(NC(=O)CCC)C(C)(C)C(=O)OC(=O)C(C)(C)C(CCCCC)NC(=O)CCC` (stereo unspecified), 1.6 µM corresponded to half-maximal inhibition (IC50).

Consider `CC(C)(C(=O)OC(=O)C(C)(C)C(NC(=O)c1ccc(C#N)cc1)C1CC=CCC1)C(NC(=O)c1ccc(C#N)cc1)C1CC=CCC1` (stereo unspecified), for which half-maximal inhibition (IC50) was put at 0.069 µM.

Regarding `O=C(CCNC(=O)c1ccccc1)OC(=O)CCNC(=O)c1ccccc1`, it took 3.1 µM to reach half-maximal inhibition (IC50).

The target of a further assay is T2, Chymase (Homo sapiens, UniProt P23946).
T2 sequence (P23946 whole entry): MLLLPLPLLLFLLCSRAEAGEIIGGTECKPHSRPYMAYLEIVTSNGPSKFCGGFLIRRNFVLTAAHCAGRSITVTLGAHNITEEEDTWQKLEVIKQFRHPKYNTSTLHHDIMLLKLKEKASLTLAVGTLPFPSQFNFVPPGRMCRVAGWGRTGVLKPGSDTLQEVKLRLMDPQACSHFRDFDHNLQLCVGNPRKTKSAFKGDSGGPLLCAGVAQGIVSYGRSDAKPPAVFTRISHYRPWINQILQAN
The assay is described as follows: Inhibitory activity against human chymase (h-chymase).
On to `CC(C)(C(=O)OC(=O)C(C)(C)C(CCc1ccccc1)NC(=O)c1ccc(C#N)cc1)C(CCc1ccccc1)NC(=O)c1ccc(C#N)cc1` (stereo unspecified), for which the half-maximal inhibitory concentration (IC50) was 0.27 µM.

Take `CCCC(NC(=O)c1ccccc1)C(C)(C)C(=O)OC(=O)C(C)(C)C(CCC)NC(=O)c1ccccc1` (stereo unspecified): the concentration for half-maximal inhibition (IC50) worked out at 0.058 µM. Compared with the last compound, the IC50 is about 4.7-fold lower.

The compound `O=C(CC(CCc1ccccc1)NC(=O)c1ccccc1)OC(=O)CC(CCc1ccccc1)NC(=O)c1ccccc1` (stereo unspecified) came in with a 50% inhibitory concentration (IC50) above 1000 µM.

With `CCCCCC(NC(=O)CCC)C(C)(C)C(=O)OC(=O)C(C)(C)C(CCCCC)NC(=O)CCC` (stereo unspecified), the IC50 is 29 µM.

Compound `CC(C)(C(=O)OC(=O)C(C)(C)C(NC(=O)c1ccc(C#N)cc1)C1CC=CCC1)C(NC(=O)c1ccc(C#N)cc1)C1CC=CCC1` (stereo unspecified) came in with an IC50 of 0.13 µM.

Compound `CCC(NC(=O)c1ccccc1)C(C)(C)C(=O)OC(=O)C(C)(C)C(CC)NC(=O)c1ccccc1` (stereo unspecified) had a half-inhibitory concentration (IC50) of 0.037 µM.

Turning to `CC(C)(CNC(=O)c1ccccc1)C(=O)OC(=O)C(C)(C)CNC(=O)c1ccccc1`, the IC50 is 3 µM.

Regarding `O=C(CCNC(=O)c1ccccc1)OC(=O)CCNC(=O)c1ccccc1`, inhibition was half-maximal at 40 µM (IC50).

Compound `CC(C)(C(=O)OC(=O)C(C)(C)C(NC(=O)c1ccc(C#N)cc1)c1ccccc1)C(NC(=O)c1ccc(C#N)cc1)c1ccccc1` (stereo unspecified) came in with an IC50 of 13 µM.

The compound `CCCCCCC(NC(=O)c1ccccc1)C(C)(C)C(=O)OC(=O)C(C)(C)C(CCCCCC)NC(=O)c1ccccc1` (stereo unspecified) showed an IC50 of 0.032 µM.

The compound `CCCCC(NC(=O)c1ccccc1)C(C)(C)C(=O)OC(=O)C(C)(C)C(CCCC)NC(=O)c1ccccc1` (stereo unspecified) yielded an IC50 of 0.005 µM. Compared with the last compound, the IC50 is about 6.4-fold lower.

For the compound `Cc1ccccc1C(NC(=O)c1ccc(C#N)cc1)C(C)(C)C(=O)OC(=O)C(C)(C)C(NC(=O)c1ccc(C#N)cc1)c1ccccc1C` (stereo unspecified), the 50% inhibitory concentration (IC50) stood at 8.7 µM. This IC50 lies about 1700-fold higher than the previous one.

`CC(C)(C(=O)OC(=O)C(C)(C)C(NC(=O)c1ccc(C#N)cc1)c1ccccc1Cl)C(NC(=O)c1ccc(C#N)cc1)c1ccccc1Cl` (stereo unspecified) showed a half-inhibitory concentration (IC50) of 47 µM. Compared with the last compound, the IC50 is about 5.4-fold higher.

For `CCCCCC(NC(=O)c1ccccc1)C(C)(C)C(=O)OC(=O)C(C)(C)C(CCCCC)NC(=O)c1ccccc1` (stereo unspecified), the midpoint of inhibition, the IC50, lay at 0.013 µM.

For the compound `CC(C)(C(=O)OC(=O)C(C)(C)C(CCc1ccccc1)NC(=O)c1ccccc1)C(CCc1ccccc1)NC(=O)c1ccccc1` (single isomer, unassigned; (+)), inhibition was half-maximal at 0.091 µM (IC50).

`CCCC(=O)NC(CCc1ccccc1)C(C)(C)C(=O)OC(=O)C(C)(C)C(CCc1ccccc1)NC(=O)CCC` (stereo in doubt; 9 (-)) showed an IC50 of 0.0056 µM.

For `CC(C)(C(=O)OC(=O)C(C)(C)C(CCc1ccccc1)NC(=O)c1ccccc1)C(CCc1ccccc1)NC(=O)c1ccccc1` (stereo in doubt; 9), the IC50 was 0.02 µM.

The compound `CCCC(=O)NC(CCc1ccccc1)C(C)(C)C(=O)OC(=O)C(C)(C)C(CCc1ccccc1)NC(=O)CCC` (stereo in doubt; 15) returned an IC50 of 2.6 µM. Compared with the last compound, the IC50 is about 130-fold higher.
